Measurements taken from patent publication US12600728B2, “Interleukin-17 inhibitors” (priority 2020, dated 2026).
pIC50: −log10 of the molar value. Like-named read-outs stand apart in the source and are kept apart here.

Tests used:
[1] = biological target: biotinylated human IL-17A / AF647-labeled human IL-17RA (Homo sapiens, UniProt Q16552); assay: Human IL-17A×IL-17RA TR-FRET assay; type: binding
Procedure, shortened: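 Compounds tested in duplicate at each concentration; neutral controls contain all components with DMSO in place of compound.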

[2] = biological target: recombinant human IL-17AA (Homo sapiens, UniProt Q16552); assay: IL-6 release from NHDF cells, IL-17AA plus TNF-α stimulation; type: cell-based; conditions: 24 hours, IL-6 by ELISA
recombinant human IL-17AA, sequence (Q16552 24-155): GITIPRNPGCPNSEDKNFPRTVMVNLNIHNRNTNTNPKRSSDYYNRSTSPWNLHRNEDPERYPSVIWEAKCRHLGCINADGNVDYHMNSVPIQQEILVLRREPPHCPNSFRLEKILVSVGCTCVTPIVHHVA
Procedure, shortened: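 IL-17-specific IL-6 release from NHDF cells adhered overnight; compounds pre-incubated 30 min at room temperature with human IL-17AA plus TNF-α, then 24 h on cells at 37° C. Final DMSO 0.1% or plasma 20%; IL-6 by ELISA (450 nm). TNF-α-only IL-6 subtracted before IC50 fit.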

[3] = TR-FRET, 5 nM IL-17A, 30 nM IL-17RA, read-out: IL17AA FRET/ IL17Rawt IC50
[4] = NHDF cells, IL-17AA 30 pM + TNF-α 6 pM, read-out: IL17AA + TNF IC50 IL-6
[5] = TR-FRET, biotinylated human IL-17A 5 nM, AF647-labeled human IL-17RA 30 nM, read-out: IL17AA FRET/ IL17Rawt IC50
[6] = NHDF cells, IL-17AA 30 pM plus TNF-α 6 pM, read-out: IL17AA + TNF IC50 IL-6

biotinylated human IL-17A / AF647-labeled human IL-17RA, sequence (Q16552 24-155): as above

Compound	pIC50 [1, 3]	pIC50 [2, 4]	pIC50 [1, 5]	pIC50 [2, 6]	also measured
Cc1nocc1C(=O)N[C@H](C(=O)Nc1ccc(-c2cc(Cl)c[n+]([O-])c2C)c(F)c1)C1CCC(F)(F)CC1 [Example 172, (S)-5-chloro-3-(4-(2-(4,4-difluorocyclohexyl)-2-(3-methylisoxazole-4-carboxamido)acetamido)-2-fluorophenyl)-2-methylpyridine 1-oxide]	6.22	6.27	–	–	–
Cc1cc[n+]([O-])c(C)c1-c1ccc(NC(=O)[C@@H](NC(=O)c2ccnn2C2CC2)C2CCCCCC2)cc1 [Example 42, (S)-3-(4-(2-cycloheptyl-2-(1-cyclopropyl-1H-pyrazole-5-carboxamido)acetamido)phenyl)-2,4-dimethylpyridine 1-oxide]	–	–	7.59	7.92	–
Cc1cc[n+]([O-])c(C)c1-c1ccc(NC(=O)[C@@H](NC(=O)c2conc2C)C2CCCCCC2)nc1 [Example 44, (S)-6′-(2-cycloheptyl-2-(3-methylisoxazole-4-carboxamido)acetamido)-2,4-dimethyl-[3,3′-bipyridine] 1-oxide]	–	–	7.47	7.74	–
Cc1cc[n+]([O-])c(C)c1-c1ccc(NC(=O)[C@@H](NC(=O)c2ccnn2C)C(c2ccccc2)c2ccccc2)cc1 [Example 193, (S)-2,4-dimethyl-3-(4-(2-(1-methyl-1H-pyrazole-5-carboxamido)-3,3-diphenylpropanamido)phenyl)pyridine 1-oxide]	7.01	7.33	–	–	–
Cc1c(-c2ccc(NC(=O)[C@@H](NC(=O)c3ccc4n3CCNC4)C3CCCCC3)cc2)c(Cl)cc[n+]1[O-] [Example 206, (S)-4-chloro-3-(4-(2-cyclohexyl-2-(1,2,3,4-tetrahydropyrrolo[1,2-a]pyrazine-6-carboxamido)acetamido)phenyl)-2-methylpyridine 1-oxide]	6.53	7.20	–	–	–
Cc1cc[n+]([O-])c(C)c1-c1ccc(NC(=O)[C@@H](NC(=O)c2ccnn2C)C2CCCCCC2)cc1 [Example 41, (S)-3-(4-(2-cycloheptyl-2-(1-methyl-1H-pyrazole-5-carboxamido)acetamido)phenyl)-2,4-dimethylpyridine 1-oxide]	–	–	7.62	8.05	–
Cc1cc[n+]([O-])c(C)c1-c1ccc(NC(=O)[C@@H](NC(=O)c2ccnn2C)[C@H]2CCC[C@H](F)CC2)cc1 [Example 197, 3-(4-((S)-2-((1S,4S)-4-fluorocycloheptyl)-2-(1-methyl-1H-pyrazole-5-carboxamido)acetamido)phenyl)-2,4-dimethylpyridine 1-oxide]	6.67	6.92	–	–	–
Cc1c[n+]([O-])cc(C)c1-c1ccc(NC(=O)[C@@H](NC(=O)c2ccnn2C(C)C)C2CCCCCC2)cc1 [Example 101, (S)-4-(4-(2-cycloheptyl-2-(1-isopropyl-1H-pyrazole-5-carboxamido)acetamido)phenyl)-3,5-dimethylpyridine 1-oxide]	–	–	7.07	7.66	–
Cc1nocc1C(=O)NC(C(=O)Nc1ccc(-c2c(Cl)cc[n+]([O-])c2C)cc1)C1CC2CC2C1 (single isomer, unassigned) [Example 198]	6.65	7.03	–	–	–
Cc1cc[n+]([O-])c(C)c1-c1ccc(NC(=O)[C@@H](NC(=O)c2ccnn2C)C2CCC(F)(F)CC2)cc1F [Example 109, 3-(4-((S)-2-(4,4-difluorocyclohexyl)-2-(1-methyl-1H-pyrazole-5-carboxamido)acetamido)-2-fluorophenyl)-2,4-dimethylpyridine 1-oxide]	–	–	6.79	7.08	–
Cc1cc[n+]([O-])c(C(F)F)c1-c1ccc(NC(=O)[C@@H](NC(=O)c2ccnn2C)C2CCCCC2)cc1 [Example 104, (S)-3-(4-(2-cyclohexyl-2-(1-methyl-1H-pyrazole-5-carboxamido)acetamido)phenyl)-2-(difluoromethyl)-4-methylpyridine 1-oxide]	–	–	5.80	6.86	–
COCc1nocc1C(=O)N[C@H](C(=O)Nc1ccc(-c2c(C)cc[n+]([O-])c2C)cc1)C1CCC(F)(F)CC1 [Example 33, (S)-3-(4-(2-(4,4-difluorocyclohexyl)-2-(3-(methoxymethyl)isoxazole-4-carboxamido)acetamido)phenyl)-2,4-dimethylpyridine 1-oxide]	–	–	5.94	7.06	–
Cc1c(-c2ccc(NC(=O)[C@@H](NC(=O)c3ccnn3C)C3CCCCC3)cc2F)c(C(F)(F)F)cc[n+]1[O-] [Example 66, 3-(4-((S)-2-cyclohexyl-2-(1-methyl-1H-pyrazole-5-carboxamido)acetamido)-2-fluorophenyl)-2-methyl-4-(trifluoromethyl)pyridine 1-oxide]	–	–	7.74	8.40	–
CCc1nocc1C(=O)N[C@H](C(=O)Nc1ccc(-c2c(C(F)(F)F)ccnc2C)cc1)C1CCCC1 [compound 139, (S)-N-(1-cyclopentyl-2-((4-(2-methyl-4-(trifluoromethyl)pyridin-3-yl)phenyl)amino)-2-oxoethyl)-3-ethylisoxazole-4-carboxamide, reference compound]	–	–	–	–	pIC50 ([1]; TR-FRET, 5 nM IL-17A, 30 nM IL-17RA, reference examples (pyridines), read-out: IL17AA FRET/ IL17RAwt IC50): 6.05; pIC50 ([2]; NHDF cells, IL-17AA 30 pM + TNF-α 6 pM, reference examples (pyridines), read-out: IL 17AA + TNF IC50 IL-6): 6.82
Cc1cc[n+]([O-])c(C)c1-c1ccc(NC(=O)[C@@H](NC(=O)c2ccc3n2CCNC3)C2CCC(F)CC2)cc1 (stereo partly drawn) [Example 200, 3-(4-((2S)-2-(4-fluorocyclohexyl)-2-(1,2,3,4-tetrahydropyrrolo[1,2-a]pyrazine-6-carboxamido)acetamido)phenyl)-2,4-dimethylpyridine 1-oxide]	6.61	6.38	–	–	–
Cc1c(-c2ccc(NC(=O)C(NC(=O)c3ccc4n3CCN(C)C4)C3CC4CC4C3)cc2F)c(Cl)cc[n+]1[O-] (stereo not shown) [Example 203, 3-(4-(2-(bicyclo[3.1.0]hexan-3-yl)-2-(2-methyl-1,2,3,4-tetrahydropyrrolo[1,2-a]pyrazine-6-carboxamido)acetamido)-2-fluorophenyl)-4-chloro-2-methylpyridine 1-oxide]	6.59	7.41	–	–	–
Cc1nocc1C(=O)NC(C(=O)Nc1ccc(-c2c(Cl)cc[n+]([O-])c2C)cc1)C1CCC(C(F)(F)F)CC1 [Example 19, 4-chloro-2-methyl-3-(4-((S)-2-(3-methylisoxazole-4-carboxamido)-2-((1r,4S)-4-(trifluoromethyl)cyclohexyl)acetamido)phenyl)pyridine 1-oxide]	–	–	7.59	7.70	–
Cc1cc[n+]([O-])c(C)c1-c1ccc(NC(=O)[C@H](Cc2ccccc2Cl)NC(=O)c2ccnn2C)cc1 [Example 180, (S)-3-(4-(3-(2-chlorophenyl)-2-(1-methyl-1H-pyrazole-5-carboxamido)propanamido)phenyl)-2,4-dimethylpyridine 1-oxide]	7.28	6.43	–	–	–
Cc1cc[n+]([O-])c(C)c1-c1ccc(NC(=O)[C@@H](NC(=O)c2ccc3n2CCNC3)C2CCCCC2)cc1 [Example 205, (S)-3-(4-(2-cyclohexyl-2-(1,2,3,4-tetrahydropyrrolo[1,2-a]pyrazine-6-carboxamido)acetamido)phenyl)-2,4-dimethylpyridine 1-oxide]	6.54	7.24	–	–	–
Cc1cc[n+]([O-])c(C)c1-c1ccc(NC(=O)[C@H](Cc2ccccc2F)NC(=O)c2conc2C)cc1 [Example 72, (S)-3-(4-(3-(2-fluorophenyl)-2-(3-methylisoxazole-4-carboxamido)propanamido)phenyl)-2,4-dimethylpyridine 1-oxide]	–	–	6.34	5.47	–
CCn1nccc1C(=O)NC(C(=O)Nc1ccc(-c2c(C)cc[n+]([O-])c2C)cc1)C1CCC(C(F)(F)F)CC1 [Example 7, 3-(4-((S)-2-(1-ethyl-1H-pyrazole-5-carboxamido)-2-((1r,4S)-4-(trifluoromethyl)cyclohexyl)acetamido)phenyl)-2,4-dimethylpyridine 1-oxide]	–	–	–	–	pIC50 ([1]; IL17AA FRET/ IL17Rawt IC50, TR-FRET, biotinylated human IL-17A 5 nM, AF647-labeled human IL-17RA 30 nM): 7.34; pIC50 ([2]; IL17AA + TNF IC50 IL-6, NHDF cells, IL-17AA 30 pM plus TNF-α 6 pM): 7.59
Cc1c(-c2ccc(NC(=O)[C@@H](NC(=O)c3ccnn3C)C3CCCCC3)cc2)cc(Cl)c[n+]1[O-] [Example 175, (S)-5-chloro-3-(4-(2-cyclohexyl-2-(1-methyl-1H-pyrazole-5-carboxamido)acetamido)phenyl)-2-methylpyridine 1-oxide]	–	–	–	–	pIC50 ([1]; IL17AA FRET/ IL17Rawt IC50, TR-FRET, 5 nM IL-17A, 30 nM IL-17RA): 6.07; pIC50 ([2]; IL17AA + TNF IC50 IL-6, NHDF cells, IL-17AA 30 pM + TNF-α 6 pM): 6.89
Cc1cc(-c2ccc(NC(=O)[C@@H](NC(=O)c3conc3C)C3CCC(F)(F)CC3)cc2)c(C)[n+]([O-])c1 [Example 169, (S)-3-(4-(2-(4,4-difluorocyclohexyl)-2-(3-methylisoxazole-4-carboxamido)acetamido)phenyl)-2,5-dimethylpyridine 1-oxide]	6.41	6.47	–	–	–
